Results reported in PubChem BioAssay (NCI).
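Dose response: 5 concentrations. Exposure: 48 h. Format: 96-well plates. Endpoint: linear interpolation; highest concentration if not reached. GI50 is the concentration that inhibits growth by half. TGI is the concentration that stops growth completely.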

Experiments:
Assay in all cases: growth of human tumour cells (NCI), 48 h
CAKI-1 renal = system: CAKI-1 renal
M14 melanoma = system: M14 melanoma
HOP-62 NSCLC = system: HOP-62 NSCLC
NCI-H23 lung = system: NCI-H23 lung
COLO 205 colon = system: COLO 205 colon
UO-31 renal = system: UO-31 renal
NCI-H226 lung = system: NCI-H226 lung
HOP-92 NSCLC = system: HOP-92 NSCLC
SK-OV-3 ovarian = system: SK-OV-3 ovarian
BT-549 breast = system: BT-549 breast

SMILES	TGI (CAKI-1 renal) [µM]	TGI (M14 melanoma) [µM]	TGI (HOP-62 NSCLC) [µM]	TGI (NCI-H23 lung) [µM]	TGI (COLO 205 colon) [µM]	TGI (UO-31 renal) [µM]	TGI (NCI-H226 lung) [µM]	TGI (HOP-92 NSCLC) [µM]	TGI (SK-OV-3 ovarian) [µM]	GI50 (NCI-H23 lung) [µM]	GI50 (BT-549 breast) [µM]	TGI (BT-549 breast) [µM]	GI50 (CAKI-1 renal) [µM]	GI50 (COLO 205 colon) [µM]	GI50 (M14 melanoma) [µM]	GI50 (UO-31 renal) [µM]	GI50 (HOP-92 NSCLC) [µM]	GI50 (HOP-62 NSCLC) [µM]	GI50 (SK-OV-3 ovarian) [µM]	GI50 (NCI-H226 lung) [µM]
C/C(=N\NC(=S)N1CCCCCC1)c1nccnc1C	> 100	0.654	> 100																	
O=C(O)c1ccc(NC(=O)C2C(=O)C(=O)N(c3ccc(C(=O)O)cc3)C2=O)cc1 (centres undefined)	> 100		> 100	> 100	> 100	> 100	> 100	> 100	> 100											
Cc1ccc(S(=O)(=O)N/N=C(\CCN2CCCC2)CC(c2ccccc2)c2c(O)c3ccccc3oc2=O)cc1 (centres undefined)	> 100	> 100	> 100	> 100		> 100	> 100	> 100	> 100											
O=[N+]([O-])c1cnc(Sc2ccncn2)c([N+](=O)[O-])c1	3.07	19	28.1	37.7	3.58	2.98		6.53	31.1	14.3	15.2	28.9	1.6	1.98	5.81	1.55	2.51	14.6	16.9	
CC(=O)N(C)OC(=O)CC(=O)c1ccccc1	> 100	> 100	> 100	> 100	> 100	> 100	> 100	> 100	> 100											
O=P(c1ccccc1)(c1ccccc1)C1CC=C(c2ccccc2)C2(CCCC2)C1 (centres undefined)	> 100	> 100		> 100	56.7	75.3	> 100	67.5	> 100											
CCCCCCCCCCCCCS(=O)(=O)O		> 100	> 100	> 100	> 100	> 100	> 100	> 100												
CC(Cn1c2c3ccccc3ccc2c2oc(=O)c3ccccc3c21)N(C)C (centres undefined)	> 100	> 100		> 100	> 100	> 100		> 100												
CS(=O)(=O)c1ccc(Oc2cc(F)cc(C#N)c2)c2c1[C@H](O)[C@H](F)[C@@H]2F	> 100	> 100	> 100	> 100	> 100	> 100	> 100		> 100	> 100	> 100	> 100	> 100	> 100	> 100	> 100		> 100	> 100	> 100
O=C(Nc1ccc(Cl)c(C(F)(F)F)c1)C(=O)C(C(=O)/C=C/c1ccccc1)C1OC(=O)c2ccccc21 (centres undefined)	> 100	> 100	> 100	> 100	> 100	> 100	> 100	> 100	> 100											
C/C(CN1C(=O)c2ccccc2C1=O)=N\NS(=O)(=O)c1cccc([N+](=O)[O-])c1	> 100	> 100	> 100	> 100	> 100	> 100	> 100		> 100											
S=CN1CCCCC1	> 100	> 100	> 100	> 100	> 100	> 100	> 100		> 100			> 100								
O=C1C2C(C(=O)N1O)N(Cc1ccccc1)C(=O)N2Cc1ccccc1 (centres undefined)	> 100	> 100	> 100	> 100	> 100	> 100	> 100	> 100	> 100											
CC(C)(C)[OH+][O-].[O-]c1ccc(Cl)cc1C=Nc1ccc(Cl)cc1[O-].[O]=[V]	52.5	76.2	74.1	66.9	37.6	70.6		> 100	46.6	20.4	13.2	28.6	15.1	19.3	13.3	13.2	28.7	23.7	19.6	
CC(C)C(C(=O)O)N(CC1(O)OCC(O)C(O)C1O)N=O (centres undefined)		> 100	> 100	> 100	> 100	> 100		> 100	> 100											
CCNc1nnc(CSc2nc(-c3ccccc3)c(-c3ccccc3)[nH]2)s1		35.7	35.7	65.3	51.2	29.5	35	41.9	41.7											
O=C1c2ccccc2-c2c1c1ccccc1c(=O)n2CCCNCCCn1c2c(c3ccccc3c1=O)C(=O)c1ccccc1-2	17.5	30.4	9.19	> 29.7	> 31.1	> 50	13.9		40.5	10.4	8.42	19.7	8.12	10.6	9.15	2.16		2.68	11.7	4.42
Cc1ccc(NC(=O)c2[nH]c(=S)nc(N)c2-c2ccccc2C)cc1C	> 100	> 100		> 100	> 100	> 100	> 100	> 100	> 100											
CN/N=C(/Cc1occc(=O)c1O)C(=O)Nc1ccc(C)c(C)c1	> 100	> 100	> 100	> 100	> 100	> 100	> 100	> 100	> 100											
CC(=O)N1CCC2(C=Nc3ccccc32)CC1	> 100	> 100	> 100	> 100	> 100			> 100	> 100											
CN(C)/[N+]([O-])=N/Oc1cc(Nc2cccc(C(=O)O)c2)c([N+](=O)[O-])cc1[N+](=O)[O-]	> 100		> 100	> 100	> 100	> 100	> 100			69.5	72.2	> 100	> 100	> 100		> 100		32.2		> 100
